{
  "source": "patent US8263151B2",
  "about": "“Peracid and 2-hydroxy organic acid compositions and methods for treating produce” (Fresh Express, Incorporated, priority 2008, dated 2012)",
  "key": {"[1]": {"details": "electron-Volts; cited from earlier work"}, "E. coli K12": {"system": "E. coli K12", "assay": "Attached cells challenge test on leaves (Example 1)", "assay_type": "cell-based", "details": "PAA 0 ppm"}, "Listeria innocua": {"system": "Listeria innocua", "assay": "Attached cells challenge test on leaves (Example 1)", "assay_type": "cell-based", "details": "PAA 0 ppm"}, "[2]": {"system": "indigenous microorganisms (Aerobic Plate Counts)", "assay_type": "cell-based"}},
  "data": [
    {"smiles": "[O][Cl+][O-]", "note": "[Chlorine Dioxide]", "values": [
      {"measurement": "Oxidation Capacity", "setting": "[1]", "result": 1.57, "unit": "eV"}
    ]},
    {"smiles": "CC(O)C(=O)O", "note": "(stereo not drawn) [LA, lactic acid]", "values": [
      {"measurement": "log reduction of attached cells (quantity not given)", "setting": "E. coli K12; Romaine, LA 0.6%", "result": 0.24},
      {"measurement": "log reduction of attached cells (quantity not given)", "setting": "E. coli K12; Romaine, LA 0.9%", "result": 0.37},
      {"measurement": "log reduction of attached cells (quantity not given)", "setting": "E. coli K12; Spinach, LA 0.6%", "result": 0.09},
      {"measurement": "log reduction of attached cells (quantity not given)", "setting": "E. coli K12; Spinach, LA 0.9%", "result": 0.42},
      {"measurement": "log reduction of attached cells (quantity not given)", "setting": "E. coli K12; Spinach, LA 1.2%", "result": 0.81},
      {"measurement": "log reduction of attached cells (quantity not given)", "setting": "Listeria innocua; Romaine, LA 0.6%", "result": 1.1},
      {"measurement": "log reduction of attached cells (quantity not given)", "setting": "Listeria innocua; Romaine, LA 0.9%", "result": 1.4},
      {"measurement": "log reduction of attached cells (quantity not given)", "setting": "Listeria innocua; Romaine, LA 1.2%", "result": 1.5},
      {"measurement": "log reduction of attached cells (quantity not given)", "setting": "Listeria innocua; Spinach, LA 0.6%", "result": 0.1},
      {"measurement": "log reduction of attached cells (quantity not given)", "setting": "Listeria innocua; Spinach, LA 0.9%", "result": 0.2},
      {"measurement": "log reduction of attached cells (quantity not given)", "setting": "Listeria innocua; Spinach, LA 1.2%", "result": 0.2}
    ]},
    {"smiles": "O=[O+][O-]", "note": "[Ozone]", "values": [
      {"measurement": "Oxidation Capacity", "setting": "[1]", "result": 2.07, "unit": "eV"}
    ]},
    {"smiles": "CC(=O)OO", "note": "[PAA, peroxyacetic acid]", "values": [
      {"measurement": "Log Reduction of Aerobic Plate Counts vs untreated", "setting": "[2]", "result": 0.7, "unit": "Log cfu/g"},
      {"measurement": "Oxidation Capacity", "setting": "[1]", "result": 1.81, "unit": "eV"}
    ]}
  ]
}
